How the values were obtained:
[1] = tested on: sporadic PD patient fibroblasts; experiment: Mitochondrial membrane potential (MMP, TMRM) in sporadic PD patient fibroblasts; format: cell-based; settings: Homo sapiens, Fibroblast, 24 h
Method: (§1) Fibroblasts were cultured in DMEM (Invitrogen) and routinely subcultured every 3-5 days using trypsin to dissociate them.
Fibroblasts were cultured and plated into a Griener black 384 pClear® plate at 10000 cells per well in 50 μl of media volume. The plates are left overnight in an incubator to allow the fibroblasts to adhere to the plate surface. The following morning the Glucose based medium is replaced with 25 μl of Galactose based media. The plates were then dosed with the compounds using an ECHO® 550 liquid handling system. The wells were dosed to provide an 8-point concentration range of 0.06 nM-300 nM of compound. After dosing the wells are topped up with a further 25 μl of Galactose based medium and then left in an incubator for 24 hours. After 24 hours, the medium is removed from the wells and replaced with 25 ul phenol free Minimal essential medium with 100 nM TMRM (Sigma) and 10 μM Hoechst Stain (Sigma). The plate is returned to the incubator for another hour after which the stain medium is removed and replaced with 25 ul Phenol free MEM. The plate is then imaged using an IN Cell high content microscope (GE Healthcare) with 10 fields of view per well in 2 channels, Cy3 excitation 542 nm, emission 604-64 nm; and the DAPI excitation 350 nm, emission 450-55 nm at 37° C. with CO2. After imaging the plate is disposed of and the images are Data mined using the INCell developer Toolkit (GE Healthcare).
(§2) After the assays had been repeated in triplicate per line and compound the data was then inputted into Graph pad Prism 7 software suite where a dose response curve is generated using the default “[Agonist] vs response (three parameters)” equation.
(§3) From this EC50 values, lowest response and maximal response were taken and used to calculate the Geometric mean between the 5 different lines assessed.
The mitochondrial membrane potential was measured in fibroblasts from 6 (Table 1) or 3 (Table 2) patients with sporadic Parkinson's disease when treated with Compounds of the invention or Comparator compounds. The results are shown in Tables 1 and 2, where “Bottom”=max response with lowest dose of compound (0.06 nM) and “top”=max response with highest dose of compound (300 nM).

[2] = tested on: sporadic PD patient fibroblasts; experiment: Cellular ATP levels (ATPlite, normalised to CyQUANT DNA content) in sporadic PD patient fibroblasts; format: cell-based; settings: Homo sapiens, Fibroblast, 24 h
Method: as §1
The ATP protocol is generally as described in Mortiboys et al, “Mitochondrial function and morphology are impaired in parkin-mutant fibroblasts”, Ann Neurol. 2008 November; 64(5):555-65. Briefly, fibroblasts were cultured as and plated into white 384 well plates with 5000 cells per well in 50 μl of media volume. The plates are left overnight in an incubator to allow the fibroblasts to adhere to the plate surface. The following morning the Glucose based medium is replaced with 25 μl of Galactose based medium. The compounds are added to the plates using a ECHO 550 liquid handling system. The wells were dosed to provide an 8-point concentration range of 0.06 nM-300 nM of compound. After dosing the wells are topped up with a further 25 μl of Galactose based medium and then left in an incubator for 24 hours. Following this incubation the medium is removed from the plate and the wells are washed twice with sterile PBS. The wells are filled with 25 μl of Sterile PBS followed by 12.5 μl of Lysis solution from the ATPlite™ Luminescence ATP detection assay system (Perkin Elmer), including 16 cell free wells to use as blank controls. The plate is then placed on a rotary shaker for 5 mins at 700 rpm. Following the shaking 12.5 μl of ATP substrate solution (Perkin Elmer) is added to each well and a further 5 min of shaking. The plate is then placed in darkness for 10 minutes prior to reading. Using a PHERAStar® plate reader, luminescence intensity is recorded. Following the ATP assay the plates are immediately assayed for DNA content in a CyQUANT® assay.
Immediately following The ATP assay DNA content is assessed with the CyQUANT® NF Cell Proliferation Assay Kit (ThermoFisher). CyQUANT® buffer is prepared immediately before the assay and is comprised of 1 ul CyQUANT® dye per ml×1 HBSS solution. 12.5 ul of CyQUANT® buffer is added to each well. Plate left in incubator for 1 hour then read on a PHERAStar® Plate reader with excitation at 497 nm and emission at 520 nm. ATP Quantification for each well is determined using the following formula: […]
as §2, §3
Cellular ATP levels were measured in fibroblasts from 6 (Table 3) or 3 (Table 4) patients with sporadic Parkinson's disease when treated with Compounds of the invention or Comparator compounds. The results are shown in Tables 3 and 4, where “Bottom”=max response with lowest dose of compound (0.06 nM) and “top”=max response with highest dose of compound (300 nM).

For C[C@H](CCC(=O)O)[C@H]1CC[C@H]2[C@@H]3[C@@H](O)C[C@@H]4C[C@@H](O)C(F)(F)C[C@]4(C)[C@H]3CC[C@]12C [Compound 7, 2,2-difluoro-3β,7β-dihydroxy-5β-cholanic acid], the activity at 60 pM ([1]; read-out: MMP Bottom (% of vehicle treated)) was 100%, the EC50 ([1]; read-out: MMP EC50 (nM)) was 4.07 nM and the activity at 0.3 µM ([1]; read-out: MMP Top (% of vehicle treated)) was 114%. The activity at 60 pM ([2]; read-out: Cellular ATP levels Bottom (% of vehicle treated)) was 112%, the EC50 ([2]; read-out: Cellular ATP levels EC50 (nM)) was 0.429 nM and the activity at 0.3 µM ([2]; read-out: Cellular ATP levels Top (% of vehicle treated)) was 172%.

— patent US20220073557A1, “FLUORINATED BILE ACIDS” (NZP UK LIMITED, priority 2018, published 2022)
